Data from US20080269121A1, “Methods and Compositions Involving A1c Subunit of L-Type Calcium Channels in Smooth Muscle Cells” (The Board of Regents of the University of Texas System, priority 2005, published 2008).
“Also recorded” adds a separate entry of the source. Where two headings read alike, the source gives them in different places.

Experiments:
[1] = test system: α1C subunit of L-type Ca^2+ channels; experiment: Q-PCR of α1C mRNA expression in HCCSMC; type: cell-based, human; settings: for induction of α1C mRNA expression: HCCSMC
Text: (§1) Primary cultures of HCCSMC: Human tissue was obtained from the descending and sigmoid colons with approval of the University of Texas Medical Branch Institutional Review Board from disease free margins of resected segments from patients undergoing surgery for colon cancer. The circular muscle layer was separated from the taenia coli and lamina propria with a tissue slicer. The circular muscle layer was collected in ice-cold HEPES buffer (in mM: 120 NaCl, 2.6 KH2S04, 4 KCl, 2 CaCl2, 0.6 MgCl2, 25 HEPES, 14 glucose and 2.1% essential amino acid mixture, pH 7.4). Two successive digestions with papain and collagenase, as described previously by Shi and Sarna, were used to disperse smooth muscle cells. The cells were cultured in RPMI 1640 (Gibco/Invitrogen, Carlsbad, Calif.) supplemented with 10% fetal bovine serum in the presence of 100 units/mL of penicillin G, 100 μg/mL of streptomycin sulfate and 0.25 μg/mL of amphoteracin B. The culture medium was changed every three days. Cells in passages 3 to 5 were used in all experiments. All cells were cultured in serum-free medium for at least 15 h prior to experiments to eliminate the possible effects of growth factors. […] The cultures of colonic smooth muscle cells retain their contractile phenotype. Each experiment used cells or muscle strips from at least three different subjects.
Total RNA was extracted from cells using the Qiagen RNeasy kit (Qiagen, Valencia, Calif.) by following the manufacturer's protocol. The cDNAs were made using the Superscript First-Strand Synthesis System (Invitrogen, Carlsbad, Calif.).
Quantitive real-time-polymerase chain reaction (Q-PCR). Q-PCR assay is employed to determine gene expression using TaqMan technology on Applied Biosystems 7000 sequence detection system (UTMB Real-time PCR Core Facility). Applied Biosystems Assays-By-Design containing a 20× assay mix of primers and TaqMan MGB probes (FAMTM dye-labeled) are used for a target gene and the endogenous control, human 18s RNA. These assays were designed using primers that span exon-exon junctions so as not to detect genomic DNA. All primer and probe sequences were searched against the Celera data base to confirm specificity. The primer and probe sequences used were as follows: human Cav1.2 channel oα1C intermediate form (Cav1.2b) probe spanning exon 1b and exon 2, […] (SEQ ID NO:4): forward primer, […] (SEQ ID NO:5): reverse primer, […] (SEQ ID NO:6). Human Cav1.2 channel α1C long form (Cav1.2a) probe spanning exon 1a and exon 2: […] (SEQ ID NO:7): forward primer, […] (SEQ ID NO:8): reverse primer. […] (SEQ ID NO:6).

Cav1.2a = settings: neonatal rat ventricular myocytes; cited from earlier work
CRE1 and CRE2 = experiment: Oligonucleotide agarose conjugate pull-down of CREB; type: cell-based, human; settings: with VIP, FIG. 10
p65 subunit = experiment: Nuclear abundance and binding of NF-κB p65 in HCCSMC; type: cell-based, human
Experimental: Cytoplasmic and nuclear protein, and RNA extraction: Cytoplasmic and nuclear proteins were prepared as described earlier by Shi et al. Briefly, the cells were washed twice with phosphate-buffered saline solution and then with buffer A (in mM: 10 HEPES, 1.5 MgCl2, 10 KCl, 0.5 dithiothreitol, 0.5 phenylmethylsulfrenyl fluoride [PMSF]; 10 ng/mL leupeptin, and 10 ng/mL aprotinin). The cells were resuspended in 25 μL of buffer A containing 0.25% NP-40 and incubated at 4° C. for 10 minutes. After centrifugation at 12,000 g for 10 minutes, the supernatant was collected as cytoplasmic extract. The nuclear pellet was resuspended in 20 μL of buffer C (in mM: 20 HEPES, […], 1.5 MgCl2, 0.2 ethylenediaimetetraacetic acid (EDTA), 0.5 DTT, 0.5 PMSF; 24% glycerol, 10 ng/mL leupeptin, and 10 ng/mL aprotinin) and incubated on ice with frequent vortexing for 15 minutes. The samples were centrifuged at 14,000 g for 10 minutes, and the supernatant (nuclear extract) was transferred to a fresh tube with 5 volumes of buffer D (in mM: 20 HEPES, 0.2 EDTA, 50 KCl, 0.5 DTT, 0.5 PMSF; 20% glycerol, 10 ng/mL leupeptin, and 10 ng/mL aprotinin). The protein concentration was determined by using the Bio-Rad assay kit (Bio-Rad Laboratories, Hercules, Calif.).
Electrophoretic mobility shift assay. […]

α1C1b promoter = α1C1b promoter luciferase reporter activity in HCCSMC; type: cell-based, human; settings: for α1C1b promoter reporter (luciferase) activity: substance by itself; for effect on enhancement of α1C1b promoter activity by VIP: with VIP
Experimental: Transient cell transfections and luciferase activity. FuGENE 6 (Roche, Mannheim, Germany) is used to transfect luciferase-expressing pGL2 constructs in HCCSMC. The cells in passage 4 are seeded into 12-well plates (Costar, Acton, Mass.) and grown to 70% to 80% confluency. Transfections are carried out by incubation of cells in each well with 1.5 μl of FuGENE 6, 0.5 μg of pGL2 construct, and 0.125 μg of pSEAP2 Control Vector (BD Biosciences Clontech, Palo Alto, Calif.) for 24 h as per manufacturer's instructions. The pSEAP2 Control Vector is co-transfected for normalization of data. The transfected cells were treated with stimulus or medium control and harvested after 24 hours. Twenty μl of the supernatant of the cell lysates are taken for the measurement of luciferase activity by a luminometer (Promega, Madison, Wis.). The SEAP activity is measured with a Clontech SEAP detection kit by following the manufacturer's instructions.
Promoter constructs, 5′-deletions, and site-directed mutagenesis. The promoter constructs of hα1c1b are prepared by PCR amplification of human genomic DNA (Roche, Indianapolis, Ind.) and digested partially with Hind III (Promega, Madison, Wis.) using the FailSafe PCR kit (Epicentre, Madison, Wis.). The PCR product is subcloned into pDrive Cloning Vector with the PCR Cloning^plus kit (Qiagen, Valencia, Calif.) and SURE 2 supercompetent cells (Stratagene, La Jolla, Calif.) and subsequently transferred to the luciferase expression plasmid pGL2-Basic Vector (Promega, Madison, Wis.). The deletion constructs are made using the full length promoter construct as a template in PCR reactions. The same methods and kits are used to subclone the sequenced PCR products into the pDrive and pGL2 vector. The site-directed mutagenesis is carried out using QuikChange® II XL Site-Directed Mutagenesis Kit from Stratagene (La Jolla, Calif.), as per manufacturer's instructions.

[2] = test system: human colonic circular muscle strips; experiment: Muscle bath: contractile response of human colonic circular muscle strips; type: cell-based
Experimental: (§2) Muscle bath experiments. Pure circular muscle strips (2 mm×10 mm) are prepared from resected human colon segments. The strips are mounted in 5 ml baths filled with carbonated Krebs solution (in mM: 118 NaCl, 4.7 KCl, 2.5 CaCl2, 1 NaH2PO4, 1-2 MgCl2, 11 D-glucose, and 25 NaHCO3) at 37° C. (Siebenlist et al., 1994; Barnes and Karin, 1997). The muscle strips are equilibrated for 1 h at 1 g tension and then stretched until maximal response is obtained to 10^−4 m ACh. The bathing solution is replaced every 15 min. Contractions are measured by force transducers and analyzed by DATAQ (Akron, Ohio) software.
The protocol for transfection of sense and antisense oligonucleotides in freshly obtained muscle strips was similar to that in HCCSMC. The circular muscle layer was isolated from the fall thickness human colon, and sliced into 2 mm×10 mm muscle strips. The strips were incubated in RPMI 1640 without serum. The sense and antisense oligonucleotides (10 μM) were added into the medium for 24 h before incubation with 20 ng/mL TNFα for 24 h.

[3] = test system: rat middle colon muscle strips; experiment: Osmotic pump administration in rats, contractile response of colon muscle strips; type: in vivo; settings: systemic administration by osmotic pump for 3 days
Experimental: as §2
(§3) Vertebrate Animals. Sprague-Dawley rats were used. For tissue harvesting, the rats were anesthetized with 5% isoflurame in 100% oxygen for 5 to 7 minutes followed by i.p. injection of 50 mg/kg ketamine.
(§4) Osmotic pumps were implanted under anesthesia as discussed above. Lateral surface of left back were shaven and cleaned with betadine. A 2 cm incision was made in the skin and subcutaneous facia and muscle separated. The micro-osmotic pump were implanted intramuscularly and the incision was closed.

[4] = test system: TNBS-induced inflammation; type: in vivo, rat; settings: for suppression of contractile response, with sub-threshold dose of TNBS: osmotic pump plus TNBS 30 mg/kg, compared with TNBS 130 mg/kg
Experimental: as §2, §3, §4
Colonic inflammation was induced by intraluminal injection of 30 mg/kg or 130-mg/kg trinitrobenzene sulfonic acid (TNBS) under anesthesia, as described above.

[5] = test system: α1C subunit of L-type Ca^2+ channels; experiment: α1C protein expression (Western immunoblotting); type: cell-based, human; settings: muscle strip tissue, FIG. 14 top
Text: as §1
Western immunoblotting. Each lane is loaded with 10 μg protein and size-separated on a 10% SDS polyacrylamide gel. After blotting, the nitrocellulose membranes are blocked with 10% non-fat dried milk at 4° C. overnight. The blots are incubated with appropriate dilution of the antibody at 4° C. overnight and appropriate dilution of designated secondary antibody at room temperature for 1 h. β-actin is used as internal control.

O=S(=O)(NCCNC/C=C/c1ccc(Br)cc1)c1cccc2cnccc12 [H-89]
effect on α1C mRNA on its own ([1]; FIG. 4): no effect on its own
effect on VIP enhancement of α1C mRNA ([1]; FIG. 4, with VIP): partially inhibited the effect of VIP

CC(C)NCC(O)c1ccc(O)c(O)c1 (centres unmarked) [isoproterenol]
Cav1.2a mRNA (Cav1.2a): transient increase in Cav1.2a mRNA
increase in peak current density (Cav1.2a): about 40%

TNFα
effect on CREB binding after VIP treatment (CRE1 and CRE2): abrogated; also recorded: reduces the binding after VIP treatment
nuclear abundance and binding of p65 (p65 subunit): enhanced the nuclear abundance and binding of p65
α1C1b promoter reporter (luciferase) activity (α1C1b promoter): reduced luciferase activity; also recorded: suppressed it
contractile response of circular muscle strips to ACh ([2]; strips incubated 24 h, organ bath): suppresses their contractile response to ACh; also recorded: suppressed the contractile response to ACh; also recorded: suppression of contractility

COc1cccc(-c2cc(=O)c3ccccc3o2)c1N [PD98059]
α1C1b promoter reporter (luciferase) activity (α1C1b promoter): little effect
effect on enhancement of α1C1b promoter activity by VIP (α1C1b promoter): little effect

(p-chloro-D-Phe^6, Leu^17)-VIP
contractile response of rat colon muscle strips to ACh [3]: suppressed the contractile response
suppression of contractile response, with sub-threshold dose of TNBS ([4]; listed as VIP receptor antagonist): increased the suppression of contractile response
suppression of contractile response, with sub-threshold dose of TNBS ([4]; listed as VIP/PACAP receptor antagonist): enhanced the suppression of contractility
contractile response to ACh, antagonist by itself ([4]; osmotic pump, no TNBS, FIG. 15): suppressed the contractile response
diarrhea ([4]; rat, in vivo): did not develop diarrhea

Oc1ccc(-c2nc(-c3ccncc3)c(-c3ccc(F)cc3)[nH]2)cc1 [SB202190]
α1C1b promoter reporter (luciferase) activity (α1C1b promoter): little effect
effect on enhancement of α1C1b promoter activity by VIP (α1C1b promoter): somewhat blunt the enhancement

NC[C@H](O)c1ccc(O)c(O)c1 [norepinephrine]
induction of α1C mRNA expression [1]: induced the expression of α1C mRNA

pituitary adenylate cyclase-activating peptide [PACAP]
effect on TNFα suppression of α1C protein [5]: minimized
effect on suppression of contractility due to TNBS-induced inflammation ([4]; intact rat model, treatment through osmotic pumps, expected): partially inhibit the suppression of contractility
effect on suppression of α1C1b promoter activity by TNFα (α1C1b promoter; with TNFα): significantly blocked this reduction
induction of α1C mRNA expression [1]: induced expression
effect on TNFα suppression of contractile response to ACh ([2]; muscle strips, treatment before/with TNFα): significantly reduces the suppression
